Experimental data taken from ChEMBL document CHEMBL1201862, “PubChem BioAssay data set” (2004).
Calls of active or inactive are those of the source.

Legend:
Transthyretin = Transthyretin (Homo sapiens, UniProt P02766); test: Luminescence-based cell-based high throughput dose response assay to identify activators of Transthyretin (TTR) transcription.; type: functional
Vero = test: host cell cytotoxicity of antiviral hits, dose response, cytotoxicity control for West Nile virus antiviral project, secondary assay (AID 1650); type: functional; details: Chlorocebus sabaeus
[1] = P. falciparum 3D7-ScDHODH growth inhibitors, dose response, SYBR Green, dry powder samples (AID 1159570); type: functional, cell-based;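 also: parasite growth measured after 72 hours of compound exposure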
[2] = P. falciparum ATP4 D1247Y mutant growth inhibitors, dose response, NITD609-resistant line, SYBR Green, dry powder (AID 1159571); type: functional, cell-based;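 also: parasites synchronized at ring stage by sorbitol before testing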
[3] = HepG2 cell cytotoxicity, dose response, cytotoxicity control, plate reader, dry powder samples (AID 1159569); type: functional, cell-based;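 also: inhibitor potency with signal falling toward the positive control level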
[4] = P. falciparum Dd2 growth inhibitors, dose response, SYBR Green, cherry-picked samples (AID 1159567); type: functional, cell-based
[5] = P. falciparum Dd2 growth inhibitors, dose response, SYBR Green, dry powder samples (AID 1159566); type: functional, cell-based;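 also: potency for growth inhibition with lower SYBR green DNA signal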
[6] = HepG2 cell cytotoxicity, dose response, cytotoxicity control, cherry-picked samples (AID 1159577); type: functional, cell-based
[7] = target: Endoplasmic reticulum aminopeptidase 1 (Homo sapiens, UniProt Q9NZ08); test: ERAP1 aminopeptidase inhibitors, dose response, biochemical, cherry-pick, set 2, plate reader (AID 743314)
Chain of Endoplasmic reticulum aminopeptidase 1 (Q9NZ08 whole entry): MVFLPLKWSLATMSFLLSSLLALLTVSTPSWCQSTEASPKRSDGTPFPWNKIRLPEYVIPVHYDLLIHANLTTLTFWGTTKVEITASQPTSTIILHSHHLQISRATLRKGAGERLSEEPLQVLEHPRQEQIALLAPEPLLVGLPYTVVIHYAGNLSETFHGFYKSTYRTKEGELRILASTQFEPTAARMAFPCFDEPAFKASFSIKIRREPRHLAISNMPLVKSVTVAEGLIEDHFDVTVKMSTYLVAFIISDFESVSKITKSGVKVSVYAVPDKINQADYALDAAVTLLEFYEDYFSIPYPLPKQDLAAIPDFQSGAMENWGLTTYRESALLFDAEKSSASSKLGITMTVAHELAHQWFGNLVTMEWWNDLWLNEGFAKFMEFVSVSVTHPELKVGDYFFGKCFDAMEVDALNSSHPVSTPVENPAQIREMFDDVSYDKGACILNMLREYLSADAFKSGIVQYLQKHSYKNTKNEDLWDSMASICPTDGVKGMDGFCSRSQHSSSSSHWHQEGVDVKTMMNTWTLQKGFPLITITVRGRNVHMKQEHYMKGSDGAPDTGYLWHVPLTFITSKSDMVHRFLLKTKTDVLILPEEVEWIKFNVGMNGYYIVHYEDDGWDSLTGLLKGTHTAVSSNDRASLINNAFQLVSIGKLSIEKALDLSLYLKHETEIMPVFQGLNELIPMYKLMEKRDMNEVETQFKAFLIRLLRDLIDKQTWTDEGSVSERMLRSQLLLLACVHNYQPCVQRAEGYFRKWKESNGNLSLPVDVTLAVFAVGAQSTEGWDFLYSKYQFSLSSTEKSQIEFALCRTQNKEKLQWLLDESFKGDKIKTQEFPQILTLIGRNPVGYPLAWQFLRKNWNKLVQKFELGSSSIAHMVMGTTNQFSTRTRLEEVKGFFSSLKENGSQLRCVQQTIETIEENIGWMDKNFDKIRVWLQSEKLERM

[8] = target: T1, Heat shock factor protein 1 (Mus musculus, UniProt P38532); test: HSF1 potentiators in luciferase reporter cells, confirmation, cell-based, NIH3T3, luminescence, dose retest (AID 435004); type: functional;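 also: stress induced by proteasome inhibitor MG132 added 30 min after compound; luciferase reporter driven by HSF1 response element in NIH3T3 cells; actives raise luminescence as potentiators of the MG132 stress response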
T1 sequence (P38532 whole entry): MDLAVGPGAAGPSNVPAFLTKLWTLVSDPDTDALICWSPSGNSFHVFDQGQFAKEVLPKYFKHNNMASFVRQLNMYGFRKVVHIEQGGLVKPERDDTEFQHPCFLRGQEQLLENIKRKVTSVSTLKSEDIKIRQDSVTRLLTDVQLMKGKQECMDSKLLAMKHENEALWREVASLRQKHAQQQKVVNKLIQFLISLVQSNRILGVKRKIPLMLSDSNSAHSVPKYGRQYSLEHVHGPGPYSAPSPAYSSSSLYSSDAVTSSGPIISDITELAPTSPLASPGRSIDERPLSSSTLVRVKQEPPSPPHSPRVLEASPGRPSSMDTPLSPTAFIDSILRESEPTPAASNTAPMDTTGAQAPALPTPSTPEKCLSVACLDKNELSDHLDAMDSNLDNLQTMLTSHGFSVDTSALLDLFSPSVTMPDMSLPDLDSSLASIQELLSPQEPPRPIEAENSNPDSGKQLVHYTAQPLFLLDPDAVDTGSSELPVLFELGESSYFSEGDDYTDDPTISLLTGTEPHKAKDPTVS

[9] = HEK293 Cytotoxicity Assay Measured in Cell-Based System Using Plate Reader - 7071-01_Inhibitor_Dose_CherryPick_Activity_Set2.; type: functional
HEK293 = test: HEK293T cell cytotoxicity, dose response, cytotoxicity control, ATP luminescence, cherry-pick samples (AID 687005); type: functional, cell-based; details: Homo sapiens;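 also: cells exposed to compound for 48 hours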
HeLa = test: HeLa cell cytotoxicity, dose response, cytotoxicity control, ATP luminescence, cherry-pick samples (AID 687004); type: functional, cell-based; details: Homo sapiens
[10] = Luminescence Cell-Based Dose Response HTS to Identify Inhibitors of 5'UTR Stem-Loop Driven Prion Protein mRNA Translation in H4 Neuroglioblastoma Cells. [Related pubchem assays: 1827 (Project Summary), 1813 (Primary HTS)]; type: functional
[11] = HEK293 cell cytotoxicity, dose response, cytotoxicity control, plate reader, cherry-picked samples (AID 743446); type: functional, cell-based
[12] = inhibitors of firefly luciferase expression or activity, dose response, H4 neuroglioma cells, luminescence (AID 1990); type: functional, cell-based
[13] = target: T2, Nuclear receptor subfamily 0 group B member 1 (Homo sapiens, UniProt P51843); type: functional, cell-based;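 also: HEK293T cells transfected with SF-1 and DAX-1 plus StAR promoter luciferase reporter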
T2 sequence (P51843 whole entry): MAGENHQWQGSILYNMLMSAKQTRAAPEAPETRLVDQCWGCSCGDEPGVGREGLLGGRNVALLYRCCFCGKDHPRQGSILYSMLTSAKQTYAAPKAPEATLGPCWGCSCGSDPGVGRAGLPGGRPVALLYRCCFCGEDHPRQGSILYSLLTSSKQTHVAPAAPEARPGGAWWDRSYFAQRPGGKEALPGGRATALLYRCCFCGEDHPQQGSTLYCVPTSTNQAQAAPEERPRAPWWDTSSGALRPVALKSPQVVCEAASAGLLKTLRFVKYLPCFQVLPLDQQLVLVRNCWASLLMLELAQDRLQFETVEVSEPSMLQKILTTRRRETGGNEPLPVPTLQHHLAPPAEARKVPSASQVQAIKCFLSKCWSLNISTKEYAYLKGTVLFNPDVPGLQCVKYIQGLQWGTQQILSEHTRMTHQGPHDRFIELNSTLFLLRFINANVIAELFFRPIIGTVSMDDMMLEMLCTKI

[14] = inhibitors of SNCA 5'UTR-driven reporter translation, confirmation, H4 neuroglioma cells, luminescence (AID 1988); type: functional, cell-based
[15] = MC4R antagonists, dose response, counter-screen for LGR2 antagonist project, cell-based, plate reader, cherry pick (AID 743444); type: functional;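 also: transfected HEK 293 cells stimulated with alpha-MSH peptide; potency of inhibitors of the alpha-MSH evoked signal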
[16] = LGR2 antagonists, dose response, cell-based, HEK293, CRE-luciferase reporter, cherry pick, set 2 (AID 743343); type: functional;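 also: transfected cells were stimulated with diluted bursicon conditioned medium after compound addition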
cells = type: functional, cell-based
[17] = HepG2 cell cytotoxicity, dose response, cytotoxicity control, plate reader, cherry-pick, antagonist series (AID 743416); type: functional, cell-based
[18] = A549 cell cytotoxicity, dose response, cytotoxicity control, plate reader, cherry-pick, antagonist series (AID 743412); type: functional, cell-based
[19] = target: T1, Heat shock factor protein 1; test: inhibition of MG132-induced HSE-luciferase signal, confirmation, cell-based, NIH3T3, luminescence, dose retest (AID 2382); type: functional;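 also: NIH3T3 fibroblasts with HSF1-driven luciferase reporter stressed by proteasome inhibitor MG132; luminescence from HSF1-driven luciferase expression after 8 hours of MG132 stress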
[20] = target: T3, Oxysterols receptor LXR-beta (Homo sapiens, UniProt P55055); test: LXR agonists, Gal4 luciferase reporter, dose response, counter-screen for ssDAF-12 agonist project, cell-based, luminescence, HEK293, S. stercoralis campaign (AID 720737); type: functional; details: read-out: IC50 (the source's name)
T3 sequence (P55055 whole entry): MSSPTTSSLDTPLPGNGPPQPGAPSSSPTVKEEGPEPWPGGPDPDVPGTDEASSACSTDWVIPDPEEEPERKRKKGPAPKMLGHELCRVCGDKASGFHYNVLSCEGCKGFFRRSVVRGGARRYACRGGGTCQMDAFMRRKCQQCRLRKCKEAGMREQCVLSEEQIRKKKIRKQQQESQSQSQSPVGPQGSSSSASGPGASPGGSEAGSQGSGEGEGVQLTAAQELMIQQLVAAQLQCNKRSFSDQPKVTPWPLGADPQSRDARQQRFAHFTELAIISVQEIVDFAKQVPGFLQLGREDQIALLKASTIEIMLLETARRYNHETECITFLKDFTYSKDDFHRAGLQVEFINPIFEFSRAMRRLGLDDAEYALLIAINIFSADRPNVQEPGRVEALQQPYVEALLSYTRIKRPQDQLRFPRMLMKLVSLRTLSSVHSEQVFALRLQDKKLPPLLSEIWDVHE

[21] = Luminescence-based cell-based high throughput dose response assay to identify activators of the DAF-12 from the parasite S. stercoralis (ssDAF-12).; type: functional
[22] = target: T3, Oxysterols receptor LXR-beta; type: functional, cell-based
Caspase-6 = Caspase-6 (Homo sapiens, UniProt P55212); test: human caspase-6 inhibitors, dose response, biochemical, VEID-R110 fluorescence, cherry-pick (AID 720632)
Chain of Caspase-6 (P55212 24-179 limits assumed): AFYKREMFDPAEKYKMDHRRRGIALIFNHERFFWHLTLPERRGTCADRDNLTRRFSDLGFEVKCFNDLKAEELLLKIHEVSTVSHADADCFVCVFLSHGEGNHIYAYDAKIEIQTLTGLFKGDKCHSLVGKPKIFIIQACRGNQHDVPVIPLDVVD
Chain of Caspase-6 (P55212 194-293 limits assumed): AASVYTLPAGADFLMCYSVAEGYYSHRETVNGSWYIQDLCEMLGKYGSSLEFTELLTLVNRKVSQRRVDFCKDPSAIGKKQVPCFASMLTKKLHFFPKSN

[23] = inhibitors of Vif binding to APOBEC3G peptide, primary screen, biochemical, TR-FRET, GST-Vif 1-94, biotin-A3G peptide, dose response retest (AID 1117319); type: functional;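 also: TR-FRET signal of purified GST-Vif binding a biotinylated A3G peptide; inhibitors lower the FRET signal by blocking Vif and A3G binding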
Protein Tat = target: T4, Protein Tat (Human immunodeficiency virus type 1 group M subtype B (isolate HXB2)(HIV-1), UniProt P04608); type: functional;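 also: tat binding to TAR RNA read out by fluorescence polarization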
T4 sequence (P04608 whole entry): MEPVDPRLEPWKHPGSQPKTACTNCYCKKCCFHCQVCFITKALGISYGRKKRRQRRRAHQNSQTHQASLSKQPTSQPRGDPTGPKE

Genome polyprotein = Genome polyprotein (dengue virus type 2, UniProt P29990); test: Dengue-2 NS5 methyltransferase inhibitors, primary screen, biochemical, confirmation dose response (AID 588689); type: functional
Chain of Genome polyprotein (P29990 2492-3391 limits assumed): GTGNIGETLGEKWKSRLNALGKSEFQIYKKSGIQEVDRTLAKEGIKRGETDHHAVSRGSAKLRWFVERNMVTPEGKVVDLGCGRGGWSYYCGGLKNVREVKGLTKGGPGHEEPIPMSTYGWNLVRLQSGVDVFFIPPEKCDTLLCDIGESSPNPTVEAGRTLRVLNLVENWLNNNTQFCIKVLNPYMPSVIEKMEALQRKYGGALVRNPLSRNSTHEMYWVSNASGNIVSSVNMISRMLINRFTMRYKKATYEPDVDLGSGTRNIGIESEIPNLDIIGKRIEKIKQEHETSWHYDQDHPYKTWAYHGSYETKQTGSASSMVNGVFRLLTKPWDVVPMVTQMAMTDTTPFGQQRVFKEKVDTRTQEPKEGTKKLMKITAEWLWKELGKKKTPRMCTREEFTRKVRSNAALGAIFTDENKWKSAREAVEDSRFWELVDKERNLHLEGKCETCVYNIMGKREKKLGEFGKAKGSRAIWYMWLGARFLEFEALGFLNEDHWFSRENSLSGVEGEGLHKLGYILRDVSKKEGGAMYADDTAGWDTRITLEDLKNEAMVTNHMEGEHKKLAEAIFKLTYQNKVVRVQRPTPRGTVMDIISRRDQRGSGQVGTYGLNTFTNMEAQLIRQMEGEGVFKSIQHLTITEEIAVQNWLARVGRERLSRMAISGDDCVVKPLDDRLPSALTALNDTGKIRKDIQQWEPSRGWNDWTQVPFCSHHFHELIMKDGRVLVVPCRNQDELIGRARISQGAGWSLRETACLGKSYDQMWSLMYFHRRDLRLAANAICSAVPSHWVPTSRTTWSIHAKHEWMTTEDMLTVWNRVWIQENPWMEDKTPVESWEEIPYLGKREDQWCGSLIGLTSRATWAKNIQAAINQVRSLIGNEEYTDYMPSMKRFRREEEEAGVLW

[24] = THP-1 cell cytotoxicity, dose response, cytotoxicity control for Vif-APOBEC3G degradation inhibitor project, THP-1 cells (AID 1117359); type: functional; details: Human immunodeficiency virus 1, THP-1
Estrogen receptor beta = Estrogen receptor beta (Homo sapiens, UniProt Q92731);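 also: recombinant ER-beta bound to coactivator SRC1 peptide in presence of estradiol agonist; inhibitors block coactivator peptide binding and lower the FRET signal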
Chain of Estrogen receptor beta (Q92731 whole entry): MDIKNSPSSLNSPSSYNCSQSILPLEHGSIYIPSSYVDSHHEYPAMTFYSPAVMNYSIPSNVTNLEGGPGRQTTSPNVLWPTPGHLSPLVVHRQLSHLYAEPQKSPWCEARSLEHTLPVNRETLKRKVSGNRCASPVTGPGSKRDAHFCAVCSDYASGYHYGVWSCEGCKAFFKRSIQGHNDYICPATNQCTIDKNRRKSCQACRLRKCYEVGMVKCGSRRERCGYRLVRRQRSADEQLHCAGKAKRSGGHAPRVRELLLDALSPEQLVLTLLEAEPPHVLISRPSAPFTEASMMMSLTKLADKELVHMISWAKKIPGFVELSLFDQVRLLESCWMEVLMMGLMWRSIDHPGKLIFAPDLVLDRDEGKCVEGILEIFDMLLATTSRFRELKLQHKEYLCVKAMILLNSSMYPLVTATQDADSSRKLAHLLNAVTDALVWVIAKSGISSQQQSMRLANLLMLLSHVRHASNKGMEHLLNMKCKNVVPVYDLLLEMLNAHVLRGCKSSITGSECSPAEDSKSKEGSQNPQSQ

**Q.** With `CN1C(=O)C(=Cc2[nH]c3ccccc3c2CCNC(=S)NC2CC2)C(=O)N(C)C1=O` as the compound, how does the EC50 (Transthyretin) read?
**A.** > 167 µM (inactive)

**Q.** For `CCOc1ccc(/C=C2\SC(=S)N(CCC(=O)N(CCO)c3ccccc3)C2=O)cc1`, which CC50 (Vero) is on record?
**A.** 33.5 µM (active)

**Q.** For `C/C=C/c1ccc([C@@H]2[C@@H]3CN(Cc4cccnc4)C[C@H]2N3)cc1`, which AC50 [1] is on record?
**A.** 1.41 µM (active)

**Q.** And the AC50 [2]?
**A.** 1.83 µM (active)

**Q.** And the AC50 [3]?
**A.** 24.2 µM (active)

**Q.** What about the AC50 [4] of the same compound?
**A.** 1.41 µM (active)

**Q.** And the AC50 [5]?
**A.** 1.27 µM (active)

**Q.** What about the AC50 [6] of the same compound?
**A.** > 39 µM (inactive)

**Q.** Which results are given for `O=c1oc2cc(O)ccc2cc1S(=O)(=O)c1ccccc1`?
**A.** AC50 [7]: 1.44 µM (active); EC50 [8]: > 260 µM (inactive)

**Q.** With `C[C@@H]1CN([C@H](C)CO)S(=O)(=O)c2ccc(C#CC3CC3)cc2O[C@H]1CN(C)CC1CCOCC1` as the compound, how does the AC50 [9] read?
**A.** 15.4 µM (active)

**Q.** What about the AC50 (HEK293) of the same compound?
**A.** 15.4 µM (active)

**Q.** And the AC50 (HeLa)?
**A.** > 52 µM (inactive)

**Q.** Which EC50 [10] does the source give for `CC(=O)c1ccc(NC(=O)c2cnn3ccccc23)cc1` here?
**A.** 1.43 µM (active)

**Q.** And the AC50 [11]?
**A.** > 52 µM (inactive)

**Q.** And the EC50 [12]?
**A.** 2.12 µM (active)

**Q.** What about the IC50 [13] of the same compound?
**A.** > 67.5 µM (inactive)

**Q.** And the EC50 [14]?
**A.** 1.68 µM (active)

**Q.** And the AC50 [15]?
**A.** 11.7 µM (active)

**Q.** What about the AC50 [16] of the same compound?
**A.** 9.16 µM (active)

**Q.** And the IC50 (cells)?
**A.** > 67.5 µM (inactive)

**Q.** And the AC50 [17]?
**A.** > 52 µM (inactive)

**Q.** And the AC50 [18]?
**A.** 50.1 µM (active)

**Q.** What about the EC50 [19] of the same compound?
**A.** 14.3 µM (active)

**Q.** For `COc1cccc(S(=O)(=O)N(C)C[C@@H]2Oc3ncccc3C(=O)N([C@H](C)CO)C[C@@H]2C)c1`, which AC50 [7] is on record?
**A.** 9.81 µM (active)

**Q.** For `Clc1ccc(-c2cn3cc(Cl)ccc3n2)cc1`, which EC50 [20] is on record?
**A.** > 67.6 µM (inactive)

**Q.** And the IC50 [21]?
**A.** > 67.6 µM (inactive)

**Q.** What about the EC50 [22] of the same compound?
**A.** > 67.6 µM (inactive)

**Q.** With `O=C(c1ccccc1NS(=O)(=O)c1ccc([N+](=O)[O-])cc1[N+](=O)[O-])N1O[C@@H]2C=C[C@H]1C2` as the compound, how does the AC50 (Caspase-6) read?
**A.** 9.9 µM (active)

**Q.** And the IC50 [23]?
**A.** > 100 µM (active)

**Q.** What about the IC50 (Protein Tat) of the same compound?
**A.** > 100 µM (active)

**Q.** What about the IC50 (Genome polyprotein) of the same compound?
**A.** 45.4 µM (active)

**Q.** And the CC50 [24]?
**A.** 36.7 µM (active)

**Q.** For `CCOc1ccccc1-c1nc(-c2cc3ccccc3nc2OC)no1`, which IC50 (Estrogen receptor beta) is on record?
**A.** > 50 µM (not active)
